Source: patent US20240181056A1, “CHIMERIC ANTIGEN RECEPTOR (CAR)-T CELLS” (Imperial College Innovations Limited, priority 2021, published 2024)

Experiments:
[1] = tested on: T cells transduced with CART4 (tEGFR high cells); assay: In vitro suicide assay (iC9 safety switch, CID-induced apoptosis); format: cell-based, human
Procedure: CART4 with or without iC9 cells were generated with retroviral transduction with CART4 or CART4 w/o iC9 construct. CAR-T cells were kept expanded for five to seven days after transduction. A […] (CID), the B/B homodimerizer AP20187 (Clontech Laboratories), was added at a various concentration to T cell culture. The induction of apoptosis induced by CID was evaluated 24 hr later using Annexin-v/7-AAD (BD Biosciences) staining and flow cytometry analysis. Survival cells were quantified by counting beads (BD Biosciences). Survival index was calculated as follows: number of living tEGFR^+ cells/number of living tEGFR^+ cells in untreated control samples.
In order to evaluate the efficiency of iC9 safety switch in vitro, a CART4 variation without the iC9 gene (CART4 w/o iC9) was cloned as a control. T cells transduced with CART4 or CART4 without iC9 construct were exposed to increasing concentrations of the CID AP20187 (0.1 nM to 100 nM) for 24 hours. Cell death was accessed by flow cytometry analysis with 7AAD and Annexin-V. The tEGFR-positive percentage in the survived population dropped along with the increasing concentration of the CID. […] Consistent with the observations from other studies, the cells that escape killing were those expressing low levels of the transgene with a 50% reduction in mean fluorescence intensity (MFI) of tEGFR after CID (FIG. 1E). […]

[2] = target: CD4 antigen (T-cell surface glycoprotein CD4 [Homo sapiens]) (human) (UniProt P01730); assay: cell-based or functional assay
[3] = target: TCR Vbeta 7.1 chain (H. sapiens rearranged TCR Vbeta 7.1) (human); assay: cell-based or functional assay
Chain of TCR Vbeta 7.1 chain (H. sapiens rearranged TCR Vbeta 7.1) (human) (A0A577 whole entry, form in doubt): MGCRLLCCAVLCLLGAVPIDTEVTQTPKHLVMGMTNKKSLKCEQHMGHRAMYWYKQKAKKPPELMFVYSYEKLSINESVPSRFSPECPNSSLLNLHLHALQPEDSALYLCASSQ

| CD4-positive cells remaining after transduction with control CAR (flow cytometry) [2] [%] | TCR Vβ7.1-positive cells remaining after transduction with control CAR (flow cytometry) [3] [%] | Compound | reduction in mean fluorescence intensity (MFI) of tEGFR in cells that escape killing ([1]; after CID) [%] | tEGFR high cells eliminated ([1]; single 100 nM dose of CID, 24 hours, flow cytometry 7AAD/Annexin-V) [%] |
| --- | --- | --- | --- | --- |
| – | – | CC[C@H](C(=O)N1CCCC[C@H]1C(=O)O[C@H](CCc1ccc(OC)c(OC)c1)c1cccc(OCC(=O)NCC(CNC(=O)COc2cccc([C@@H](CCc3ccc(OC)c(OC)c3)OC(=O)[C@@H]3CCCCN3C(=O)[C@@H](CC)c3cc(OC)c(OC)c(OC)c3)c2)CN(C)C)c1)c1cc(OC)c(OC)c(OC)c1 [AP20187] | 50 | 69.1 |
| 45 | 1.2 | CART20 chimeric antigen receptor (anti-CD20 CAR with scFv of monoclonal antibody Leu16) | – | – |
